Measured values taken from patent US10172839B2, “Use of short term starvation regimen in combination with kinase inhibitors to enhance traditional chemo-drug efficacy and feasibility and reverse side effects of kinases in normal cells and tissues” (UNIVERSITY OF SOUTHERN CALIFORNIA, priority 2014, dated 2019).

Legend:
[1] = Blood glucose levels in mice treated with STS, rapamycin, and rapamycin with STS; format: in vivo
Protocol: Methods: Short term starvation (STS) or fasting mimicking diet (FMD) were administrated bi-weekly for periods of 48 h or 4 days, respectively. The end of the dietary intervention coincided with the administration of doxorubicin by intravenous injection. The animals were given a period of 10 to 12 days to recover bodyweight between one cycle of dietary intervention and the next. […] One-way ANOVA test was performed and differences with p-value<0.05 were considered significant (p-value<0.05, 0.01 and 0.001 are indicated as *, […], respectively).

[2] = Stress resistance experiment: survival after high dose doxorubicin

In the case of `CO[C@H]1C[C@@H]2CC[C@@H](C)[C@@](O)(O2)C(=O)C(=O)N2CCCC[C@H]2C(=O)O[C@H]([C@H](C)C[C@@H]2CC[C@@H](O)[C@H](OC)C2)CC(=O)[C@H](C)/C=C(\C)[C@@H](O)[C@@H](OC)C(=O)[C@H](C)C[C@H](C)/C=C/C=C/C=C/1C` [rapamycin], the blood glucose ([1]; Rapa+STS/FMD mice (FIG. 1A)) was “decreased blood glucose”, the blood glucose ([1]; rapamycin alone, intraperitoneally every day, ad lib feeding (FIG. 1A)) was “increase of blood glucose” and the “mortality / survival at day 20” value ([2]; rapamycin 14 days + STS 48 h prior to doxorubicin 24 mg/kg iv (FIG. 2B)) was “STS can reverse the sensitization of normal tissue to chemotherapy induced by rapamycin”. The “mortality / survival at day 20” value ([2]; rapamycin 14 days, then doxorubicin 24 mg/kg iv, ad lib feeding (FIG. 2B)) was “increased mortality”.
